# Patent US20260022142A1, “MACROCYCLIC IMMUNOMODULATORS” (Bristol-Myers Squibb Company, priority 2022, published 2026)
# Bridge positions count the residues as written; N and C are the ends. Square brackets hold non-standard residues; d marks the D form. Peptide text beside a SMILES is read from it. * marks the point of attachment. ξ: configuration not given here. Phe(4-COOH) = N[C@@H](Cc1ccc(C(=O)O)cc1)C(=O)O; Bip = N[C@@H](Cc1ccc(-c2ccccc2)cc1)C(=O)O; NH(CH2)14COOH = O=C(O)CCCCCCCCCCCCCCN*; Phe(3-Me) = Cc1cccc(C[C@H](N)C(=O)O)c1; Val(3-OH) = CC(C)(O)[C@H](N)C(=O)O; hArg = N=C(N)NCCCC[C@H](N)C(=O)O; 4Pal = N[C@@H](Cc1ccncc1)C(=O)O; Cha = N[C@@H](CC1CCCCC1)C(=O)O; Cit = NC(=O)NCCC[C@H](N)C(=O)O; dCha = N[C@H](CC1CCCCC1)C(=O)O; Thr(3ξ) = CC(O)[C@H](N)C(=O)O; Phg = N[C@H](C(=O)O)c1ccccc1; 12Ado = NCCCCCCCCCCCC(=O)O; Carboxymethyl = O=C(O)C*; Orn = NCCC[C@H](N)C(=O)O; Pra = C#CC[C@H](N)C(=O)O; Aun = NCCCCCCCCCCC(=O)O; Dab = NCC[C@H](N)C(=O)O; Dap = NC[C@H](N)C(=O)O; AEEA = NCCOCCOCC(=O)O; Piv = CC(C)(C)C(=O)*
# Target: T1, PD-1/PD-L1 interaction (PE-labeled human PD-L1-Ig binding to Jurkat cell line over-expressing human PD-1) (Homo sapiens, UniProt Q15116)
# T1 construct: expressed in transfected cells; host or cells: Jurkat
# Test: Jurkat-PD-1 Cell Binding High-Content Screening Assay (CBA)
# Assay type: cell-based
# Conditions: Jurkat cell line over-expressing human PD-1; PE-labeled PD-L1-Ig 20 nM final; read-out: Jurkat hPD1-PDL1 IC50
# Method in brief: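 Read-out is high-content imaging of cell-bound phycoerythrin-tagged PD-L1-Ig on fixed, Hoechst-counterstained Jurkat cells that over-express human PD-1. Compound exposure lasts 2 h at 37° C before the labeled ligand (20 nM final) is added for a further hour.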
# T1 sequence (Q15116 25-288): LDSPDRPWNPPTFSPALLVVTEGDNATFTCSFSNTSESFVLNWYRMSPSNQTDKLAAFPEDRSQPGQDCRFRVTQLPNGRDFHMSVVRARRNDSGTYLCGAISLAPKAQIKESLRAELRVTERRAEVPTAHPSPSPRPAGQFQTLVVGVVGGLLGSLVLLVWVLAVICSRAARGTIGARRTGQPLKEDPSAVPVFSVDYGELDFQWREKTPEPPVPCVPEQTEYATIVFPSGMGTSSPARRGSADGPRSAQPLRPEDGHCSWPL
row,IC50,SMILES
1,12.4 nM,CC(C)C[C@H]1NC(=O)[C@H](CCCN)NC(=O)[C@H](C(C)C)NC(=O)[C@H](Cc2ccc(-c3ccccc3)cc2)NC(=O)[C@H](C(C)C)NC(=O)[C@H](Cc2c[nH]c3ccccc23)NC(=O)[C@H](CC(=O)O)NC(=O)[C@H](Cc2ccc(OCC(=O)O)cc2)NC(=O)[C@H](Cc2ccc(OCC(=O)O)cc2)NC(=O)CSC[C@@H](C(=O)NCC(=O)NCCOCCOCC(=O)N[C@@H](CCCN)C(=O)NCCCCCCCCCCC(=O)O)NC(=O)[C@H](CCCN)NC(=O)[C@H](C(C)C)NC(=O)[C@H](CC2CCCCC2)NC(=O)[C@H](CC(N)=O)NC1=O [Compound 3205] ({CH2CO}-Y(Carboxymethyl)Y(Carboxymethyl)DWV[Bip]V[Orn][dL]N[Cha]V[Orn]CG[AEEA][Orn][Aun]-OH; thioether N-14)
2,20.9 nM,Cc1cccc(C[C@@H]2NC(=O)[C@H](CC(=O)O)NC(=O)[C@H](Cc3ccc(OCC(=O)O)cc3)NC(=O)[C@H](CN)NC(=O)CSC[C@@H](C(=O)N[C@@H](CCN)C(=O)NCCOCCOCC(=O)NCCCCCCCCCCC(=O)O)NC(=O)[C@H](CCCN)NC(=O)[C@H](Cc3ccc(O)cc3)NC(=O)[C@H](CC3CCCCC3)NC(=O)[C@H](CCN)NC(=O)[C@@H](CC(C)C)NC(=O)[C@H](CCCN)NC(=O)[C@H](Cc3ccc(O)cc3)NC(=O)[C@H](Cc3ccc(-c4ccccc4)cc3)NC(=O)[C@H](Cc3ccc(O)cc3)NC2=O)c1 [Compound 2505] ({CH2CO}-[Dap]Y(Carboxymethyl)D[Phe(3-Me)]Y[Bip]Y[Orn][dL][Dab][Cha]Y[Orn]C[Dab][AEEA][Aun]-OH; thioether N-14)
3,20.5 nM,Cc1cccc(C[C@@H]2NC(=O)[C@H](CC(=O)O)NC(=O)[C@H](Cc3ccc(OCC(=O)O)cc3)NC(=O)[C@H](CN)NC(=O)CSC[C@@H](C(=O)N[C@@H](CCN)C(=O)NCCCCCCCCCCC(N)=O)NC(=O)[C@H]([C@@H](C)O)NC(=O)[C@H](C(C)C)NC(=O)[C@H](CC3CCCCC3)NC(=O)[C@H](CCN)NC(=O)[C@@H](CC(C)C)NC(=O)[C@H](CCCN)NC(=O)[C@H](CCCNC(=N)N)NC(=O)[C@H](Cc3ccc(-c4ccccc4)cc3)NC(=O)[C@H](C(C)C)NC2=O)c1 [Compound 2025] ({CH2CO}-[Dap]Y(Carboxymethyl)D[Phe(3-Me)]V[Bip]R[Orn][dL][Dab][Cha]VTC[Dab][Aun]-NH2; thioether N-14)
4,8.3 nM,Cc1cccc(C[C@@H]2NC(=O)[C@H](CC(=O)O)NC(=O)[C@H](Cc3ccc(OCC(=O)O)cc3)NC(=O)[C@H](Cc3ccncc3)NC(=O)CSC[C@@H](C(=O)N[C@@H](CCN)C(=O)NCCOCCOCC(=O)NCCCCCCCCCCC(=O)O)NC(=O)[C@H](CCCN)NC(=O)[C@H](C(C)C)NC(=O)[C@H](CC3CCCCC3)NC(=O)[C@H](CCN)NC(=O)[C@@H](CC(C)C)NC(=O)[C@H](CCCN)NC(=O)[C@H](Cc3ccc(O)cc3)NC(=O)[C@H](Cc3ccc(-c4ccccc4)cc3)NC(=O)[C@H](C(C)C)NC2=O)c1 [Compound 2705] ({CH2CO}-[4Pal]Y(Carboxymethyl)D[Phe(3-Me)]V[Bip]Y[Orn][dL][Dab][Cha]V[Orn]C[Dab][AEEA][Aun]-OH; thioether N-14)
5,5.5 nM,Cc1cccc(C[C@@H]2NC(=O)[C@H](CC(=O)O)NC(=O)[C@H](Cc3ccc(OCC(=O)O)cc3)NC(=O)[C@H](CCNC(=O)C(C)(C)C)NC(=O)CSC[C@@H](C(=O)N[C@@H](CCN)C(=O)NCCCCCCCCCCC(=O)O)NC(=O)[C@H](CCC(N)=O)NC(=O)[C@H](C(C)C)NC(=O)[C@H](CC3CCCCC3)NC(=O)[C@H](CCN)NC(=O)[C@@H](CC(C)C)NC(=O)[C@H](CCCN)NC(=O)[C@H](Cc3ccc(OCC(=O)O)cc3)NC(=O)[C@H](Cc3ccc(-c4ccccc4)cc3)NC(=O)[C@H](Cc3ccc(O)cc3)NC2=O)c1 [Compound 2112] ({CH2CO}-[Dab](Piv)Y(Carboxymethyl)D[Phe(3-Me)]Y[Bip]Y(Carboxymethyl)[Orn][dL][Dab][Cha]VQC[Dab][Aun]-OH; thioether N-14)
6,9.2 nM,C#CC[C@H](NC(=O)COCCOCCNC(=O)[C@H](CCCN)NC(=O)[C@@H]1CSCC(=O)N[C@@H](Cc2ccncc2)C(=O)N[C@@H](Cc2ccc(OCC(=O)O)cc2)C(=O)N[C@@H](CC(=O)O)C(=O)N[C@@H](Cc2c[nH]c3ccccc23)C(=O)N[C@@H](C(C)C)C(=O)N[C@@H](Cc2ccc(-c3ccccc3)cc2)C(=O)N[C@@H]([C@@H](C)CC)C(=O)N[C@@H](CCCN)C(=O)N[C@H](CC(C)C)C(=O)N[C@@H](CCN)C(=O)N[C@@H](CC(C)C)C(=O)N[C@@H](C(C)C)C(=O)N[C@@H]([C@@H](C)O)C(=O)N1)C(=O)N[C@@H](Cc1c[nH]cn1)C(=O)NCCCCCCCCCCC(=O)O [Compound 1204] ({CH2CO}-[4Pal]Y(Carboxymethyl)DWV[Bip]I[Orn][dL][Dab]LVTC[Orn][AEEA][Pra]H[Aun]-OH; thioether N-14)
7,9.7 nM,Cc1cccc(C[C@@H]2NC(=O)[C@H](CC(=O)O)NC(=O)[C@H](Cc3ccc(OCC(=O)O)cc3)NC(=O)[C@H](CCCCNC(=N)N)NC(=O)CSC[C@@H](C(=O)N[C@@H](CCCN)C(=O)N[C@@H](CO)C(=O)NCCCCCCCCCCCC(=O)O)NC(=O)[C@H](C(C)O)NC(=O)[C@H](C(C)C)NC(=O)[C@H](CC3CCCCC3)NC(=O)[C@H](CCN)NC(=O)[C@@H](CC(C)C)NC(=O)[C@H](CCCN)NC(=O)[C@H](CCCNC(N)=O)NC(=O)[C@H](Cc3ccc(-c4ccccc4)cc3)NC(=O)[C@H](C(C)C)NC2=O)c1 (stereo partly drawn) [Compound 3187] ({CH2CO}-[hArg]Y(Carboxymethyl)D[Phe(3-Me)]V[Bip][Cit][Orn][dL][Dab][Cha]V[Thr(3ξ)]C[Orn]S[12Ado]-OH; thioether N-14)
8,11.3 nM,CC(C)C[C@H]1NC(=O)[C@H](CCCN)NC(=O)[C@H](C(C)C)NC(=O)[C@H](Cc2ccc(-c3ccccc3)cc2)NC(=O)[C@H](C(C)C)NC(=O)[C@H](Cc2c[nH]c3ccccc23)NC(=O)[C@H](CC(=O)O)NC(=O)[C@H](Cc2ccc(C(=O)O)cc2)NC(=O)[C@H](C(C)O)NC(=O)CSC[C@@H](C(=O)N[C@@H](CC(N)=O)C(=O)NCCOCCOCC(=O)N[C@@H](CCCN)C(=O)NCCCCCCCCCCCC(=O)O)NC(=O)[C@H](CO)NC(=O)[C@H](C(C)C)NC(=O)[C@H](CC2CCCCC2)NC(=O)[C@H](CCN)NC1=O (stereo partly drawn) [Compound 3038] ({CH2CO}-[Thr(3ξ)][Phe(4-COOH)]DWV[Bip]V[Orn][dL][Dab][Cha]VSCN[AEEA][Orn][12Ado]-OH; thioether N-14)
9,71.1 nM,Cc1cccc(C[C@@H]2NC(=O)[C@H](CC(=O)O)NC(=O)[C@H](Cc3ccc(OCC(=O)O)cc3)NC(=O)[C@H](C)NC(=O)CSC[C@@H](C(=O)N[C@@H](CCN)C(=O)NCCOCCOCC(=O)NCCOCCOCC(=O)NCCOCCOCC(=O)NCCOCCOCC(=O)NCCCCCCCCCCCCCCC(=O)O)NC(=O)[C@H](CO)NC(=O)[C@H](C(C)(C)O)NC(=O)[C@H](CC3CCCCC3)NC(=O)[C@H](CCN)NC(=O)[C@@H](CC(C)C)NC(=O)[C@H](CCCN)NC(=O)[C@H](Cc3ccc(OCC(=O)O)cc3)NC(=O)[C@H](Cc3ccc(-c4ccccc4)cc3)NC(=O)[C@H](Cc3ccc(OCC(=O)O)cc3)NC2=O)c1 [Compound 3869] ({CH2CO}-AY(Carboxymethyl)D[Phe(3-Me)]Y(Carboxymethyl)[Bip]Y(Carboxymethyl)[Orn][dL][Dab][Cha][Val(3-OH)]SC[Dab][AEEA][AEEA][AEEA][AEEA]-{NH(CH2)14COOH}; thioether N-14)
10,38.2 nM,CC(C)C[C@H]1NC(=O)[C@H](CCCN)NC(=O)[C@H](C(C)C)NC(=O)[C@H](Cc2ccc(-c3ccccc3)cc2)NC(=O)[C@H](C(C)C)NC(=O)[C@H](Cc2c[nH]c3ccccc23)NC(=O)[C@H](CC(=O)O)NC(=O)[C@H](Cc2ccc(OCC(=O)O)cc2)NC(=O)[C@H](CN)NC(=O)CSC[C@@H](C(=O)N[C@H](Cc2cnc[nH]2)C(=O)NCCCCCCCCCCC(=O)O)NC(=O)[C@H]([C@@H](C)O)NC(=O)[C@H](C(C)C)NC(=O)[C@H](CC2CCCCC2)NC(=O)[C@H](Cc2cnc[nH]2)NC1=O [Compound 1124] ({CH2CO}-[Dap]Y(Carboxymethyl)DWV[Bip]V[Orn][dL]H[Cha]VTC[dH][Aun]-OH; thioether N-14)
11,18 nM,Cc1cccc(C[C@@H]2NC(=O)[C@H](CC(=O)O)NC(=O)[C@H](Cc3ccc(OCC(=O)O)cc3)NC(=O)[C@H](CN)NC(=O)CSC[C@@H](C(=O)NCCOCCOCC(=O)N[C@@H](CCN)C(=O)NCCCCCCCCCCC(=O)O)NC(=O)[C@H](CCCN)NC(=O)[C@H](C(C)C)NC(=O)[C@H](CC3CCCCC3)NC(=O)[C@H](CCN)NC(=O)[C@@H](CC3CCCCC3)NC(=O)[C@H](CCCN)NC(=O)[C@H](C(C)C)NC(=O)[C@H](Cc3ccc(-c4ccccc4)cc3)NC(=O)[C@H](C(C)C)NC2=O)c1 [Compound 2677] ({CH2CO}-[Dap]Y(Carboxymethyl)D[Phe(3-Me)]V[Bip]V[Orn][dCha][Dab][Cha]V[Orn]C[AEEA][Dab][Aun]-OH; thioether N-14)
12,14.3 nM,CC(C)C[C@H]1NC(=O)[C@H](CCCN)NC(=O)[C@H](C(C)C)NC(=O)[C@H](Cc2ccc(-c3ccccc3)cc2)NC(=O)[C@H](C(C)C)NC(=O)[C@H](Cc2c[nH]c3ccccc23)NC(=O)[C@H](CC(=O)O)NC(=O)[C@H](Cc2ccc(OCC(=O)O)cc2)NC(=O)[C@H](CN)NC(=O)CSC[C@@H](C(=O)NCCOCCOCC(=O)N[C@H](CCCCN)C(=O)NCCCCCCCCCCC(=O)O)NC(=O)[C@H]([C@@H](C)O)NC(=O)[C@H](C(C)C)NC(=O)[C@H](CC2CCCCC2)NC(=O)[C@H](Cc2cnc[nH]2)NC1=O [Compound 1131] ({CH2CO}-[Dap]Y(Carboxymethyl)DWV[Bip]V[Orn][dL]H[Cha]VTC[AEEA][dK][Aun]-OH; thioether N-14)
13,197 nM,Cc1cccc(C[C@@H]2NC(=O)[C@H](CC(=O)O)NC(=O)[C@H](Cc3ccc(OCC(=O)O)cc3)NC(=O)[C@H](CN)NC(=O)CSC[C@@H](C(=O)N[C@@H](CCN)C(=O)NCCCCCCCCCCC(=O)O)NC(=O)[C@H](c3ccccc3)NC(=O)[C@H](C(C)C)NC(=O)[C@H](CC3CCCCC3)NC(=O)[C@H](CCN)NC(=O)[C@@H](CC(C)C)NC(=O)[C@H](CCCN)NC(=O)[C@H](Cc3ccc(O)cc3)NC(=O)[C@H](Cc3ccc(-c4ccccc4)cc3)NC(=O)[C@H](C(C)C)NC2=O)c1 [Compound 2762] ({CH2CO}-[Dap]Y(Carboxymethyl)D[Phe(3-Me)]V[Bip]Y[Orn][dL][Dab][Cha]V[Phg]C[Dab][Aun]-OH; thioether N-14)
